From patent publication US20240317865A1, “ANTIBODIES AGAINST INTEGRIN ALPHA 11 BETA 1” (MOMENTA PHARMACEUTICALS, INC., priority 2020, published 2024)

System: A549 cell xenografts
Assay: Tumor xenograft model
Format: in vivo, C.B-17 SCID mice
Settings: docetaxel 10 mg/kg every 4 days, 6 doses
Method: Fifty-six female C.B-17 SCID mice were inoculated with A549 cells (5×10^6 cells/mouse) subcutaneously in the flank. Once tumor volume reached ˜100 mm^3, animals were randomized amongst 7 groups of 8 mice each. Mice were then treated intraperitonealy every 3 days for a total of 7 doses with isotype controls or novel mAbs 79E3E3, 16E10 and 9G04 (2 and 20 mg/kg) or with docetaxel at 10 mg/kg every 4 days for a total of 6 doses. Tumor volumes and body weights were recorded twice a week with a gap of 2-3 days in between two measurements until any of the following conditions defined were observed: loss of 20% or more body weight; tumors that inhibit normal physiological function such as eating, drinking, and mobility; ulcerated tumors; tumor size greater than 2000 mm^3 and clinical observations of prostration, paralysis, seizures and hemorrhages.
In this example, studies were performed to determine if inhibition of α11β1 function with mAb results in xenograft growth inhibition. As shown in FIG. 16 and Table 4, blocking α11β1 on mouse CAFs impeded xenograft growth in SCID mice.

**Q.** Which “Days to Volume Doubling (ave, 95% CI)” value does the source give for `CC(=O)O[C@@]12CO[C@@H]1C[C@H](O)[C@@]1(C)C(=O)[C@H](O)C3=C(C)[C@@H](OC(=O)[C@H](O)[C@@H](NC(=O)OC(C)(C)C)c4ccccc4)C[C@@](O)([C@@H](OC(=O)c4ccccc4)[C@H]21)C3(C)C` [Docetaxel, docetaxel, reference compound] here?
**A.** 11.0 (10.0, 12.0) Days
